Data taken from publication PMC8188608 (Chemical Science, 2021).
In brackets after ≈: the same amount, converted by molar mass.

Experiments:
drDXPS [1] = biological target: T1, drDXPS (Deinococcus radiodurans, UniProt Q9RUB5); assay: biochemical; settings: for inhibition at 120 µM: read-out: inhib. (%) drDXPS, at 120 μM
mtDXPS = mtDXPS (Mycobacterium tuberculosis, UniProt P9WNS3); assay: biochemical; settings: for inhib. (%) mtDXPS: at 120 μM (Table 3: concentration only given); for inhibition at 120 µM / inhibition at 200 µM: read-out: inhib. (%) mtDXPS
Sequence of mtDXPS (P9WNS3 whole entry): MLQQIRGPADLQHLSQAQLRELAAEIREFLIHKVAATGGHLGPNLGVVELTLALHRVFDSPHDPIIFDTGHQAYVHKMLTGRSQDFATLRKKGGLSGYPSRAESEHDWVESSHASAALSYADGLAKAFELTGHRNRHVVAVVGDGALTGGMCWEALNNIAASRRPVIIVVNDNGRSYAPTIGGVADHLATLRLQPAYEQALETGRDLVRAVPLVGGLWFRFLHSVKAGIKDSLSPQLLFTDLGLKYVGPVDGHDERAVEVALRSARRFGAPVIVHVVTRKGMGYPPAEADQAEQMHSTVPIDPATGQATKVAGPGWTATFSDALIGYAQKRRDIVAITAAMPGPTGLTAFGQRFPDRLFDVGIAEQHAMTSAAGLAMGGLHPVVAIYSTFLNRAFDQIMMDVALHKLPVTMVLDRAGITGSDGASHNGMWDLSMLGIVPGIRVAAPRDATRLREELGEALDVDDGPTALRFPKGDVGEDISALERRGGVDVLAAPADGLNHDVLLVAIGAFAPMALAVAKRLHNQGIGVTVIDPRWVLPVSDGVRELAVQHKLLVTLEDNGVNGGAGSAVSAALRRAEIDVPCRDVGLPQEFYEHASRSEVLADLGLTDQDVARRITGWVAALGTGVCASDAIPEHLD

E. coli TolC = assay: microbe, parasite or virus in culture; format: cell-based; settings: for inhibition at 50 µM / MIC: Escherichia coli; for inhibition at 50 µM: read-out: inhib. (%) growth inhibition of E. coli TolC; for MIC: read-out: MIC E. coli TolC
drDXPS [2] = biological target: T1, drDXPS; format: binding
M. tuberculosis H37Rv = assay: microbe, parasite or virus in culture; format: cell-based, Mycobacterium tuberculosis; settings: for anti-TB activity, head-to-head comparative analysis: 16 μM, 14 compounds tested; for MIC: Mycobacterium tuberculosis, H37RV, read-out: MIC M. tuberculosis
[3] = format: physicochemical; settings: when added at higher concentrations
drDXPS [4] = biological target: T1, drDXPS; assay: biochemical; settings: for IC50: IC50 drDXPS

T1 sequence (Q9RUB5 whole entry): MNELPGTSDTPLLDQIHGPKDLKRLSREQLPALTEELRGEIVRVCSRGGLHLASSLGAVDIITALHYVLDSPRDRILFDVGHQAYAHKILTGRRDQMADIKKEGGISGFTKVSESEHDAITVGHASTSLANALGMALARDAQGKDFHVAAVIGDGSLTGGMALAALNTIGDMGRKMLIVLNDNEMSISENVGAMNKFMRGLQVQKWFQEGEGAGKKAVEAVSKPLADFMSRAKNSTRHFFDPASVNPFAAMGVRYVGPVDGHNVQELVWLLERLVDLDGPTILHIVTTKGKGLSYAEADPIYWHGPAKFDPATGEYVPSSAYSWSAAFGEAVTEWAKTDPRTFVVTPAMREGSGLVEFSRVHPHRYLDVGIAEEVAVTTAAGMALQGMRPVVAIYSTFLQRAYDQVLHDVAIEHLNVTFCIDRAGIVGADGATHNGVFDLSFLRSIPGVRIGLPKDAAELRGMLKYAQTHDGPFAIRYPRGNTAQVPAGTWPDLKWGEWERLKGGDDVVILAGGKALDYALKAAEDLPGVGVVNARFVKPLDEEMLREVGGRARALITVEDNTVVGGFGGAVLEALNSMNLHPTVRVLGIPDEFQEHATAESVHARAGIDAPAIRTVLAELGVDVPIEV

Row | Compound | inhibition at 120 µM (drDXPS [1]) [%] | inhibition at 50 µM (E. coli TolC) [%] | inhibition at 120 µM (mtDXPS) [%] | MIC (E. coli TolC) [µM] | other results
1 | O=C(CCCOc1ccc(Cl)cc1Cl)N/N=C/c1cccs1 [Compound 16] | 4 | 28 | – | – | inhib. (%) mtDXPS (mtDXPS): n.i.
2 | O=C(CCCOc1ccc(Cl)cc1Cl)NCCc1ccc(O)cc1F [Compound 39] | 37 | 83 | – | – | fold decrease in binding affinity for drDXPS (drDXPS [2]): ~2 fold
3 | O=C(N/N=C/c1ccc2cc[nH]c2c1)c1cc2c(s1)CCCC2 [Compound 35] | 62 | – | 30 | 16 ± 5 (≈ 5.17 µg/mL) | anti-TB activity, head-to-head comparative analysis (M. tuberculosis H37Rv): most active; MIC (M. tuberculosis H37Rv): 64 µM (≈ 20.7 µg/mL); aggregate formation [3]: did not induce aggregate formation
4 | O=C(Cc1c[nH]c2ccccc12)N/N=C/c1ccc(C(F)(F)F)nc1 [Compound 4] | – | – | – | – | inhib. (%) drDXPS (drDXPS [1]; at 120 μM): n.i.; inhibition at 200 µM (mtDXPS): 25%
5 | O=C(CCCOc1ccc(Cl)cc1Cl)N/N=C/c1ncc[nH]1 [Compound 12] | 33 | 30 | 9 | – | –
6 | O=C(CCCOc1ccc(Cl)cc1Cl)N/N=C/c1ccc2cc[nH]c2c1 [Compound 26] | 58 | – | 5 | 14 ± 4 (≈ 5.46 µg/mL) | –
7 | O=C(COc1ccc(Cl)cc1Cl)N/N=C/c1ccc(Br)cn1 [Compound 10] | 14 | 21 | – | – | inhibition at 200 µM (mtDXPS): 32%
8 | O=C(N/N=C/c1ccc(C(F)(F)F)nc1)c1cc2c(s1)CCCC2 [Compound 1, (E)-N'-((6-(Trifluoromethyl)pyridin-3-yl)methylene)-4,5,6,7-tetrahydrobenzo[b]thiophene-2-carbohydrazide] | – | – | – | – | IC50 (drDXPS [1]; IC50 drDXPS): 51 µM; IC50 (mtDXPS; IC50 mtDXPS): 78 µM; inhib. (%) growth inhibition of E. coli TolC (E. coli TolC; at 50 μM): no inhib. and n.i.; mode of inhibition (drDXPS [4]): ThDP- and pyruvate-competitive and non-competitive with respect to D/L-GAP; IC50 (drDXPS [4]; at 0.3 μM ThDP): 35 ± 10 µM; IC50 (drDXPS [4]; at 0.1 mM pyruvate): 19 ± 5 µM; IC50 (drDXPS [4]; at 0.4 mM pyruvate): 86 ± 15 µM; IC50 (drDXPS [4]; varying D/L-GAP concentrations): ~50 µM; inhibition of drDXPS (drDXPS [4]; at 5 μM ThDP): 20%; inhibition of drDXPS (drDXPS [4]; at 0.6 mM pyruvate): 32%
9 | Nc1ncc(/C=N/NC(=O)c2cc3c(s2)CCCC3)cn1 [Compound 3] | 15 | – | – | – | inhib. (%) growth inhibition of E. coli TolC (E. coli TolC; at 50 μM): n.i.
10 | CC(C)(C)OC(=O)N[C@@H](Cc1ccccc1)C(=O)N/N=C/c1ccc2cc[nH]c2c1 [Compound 37] | 40 | 60 | 3 | – | –
11 | O=C(COc1ccc(Cl)cc1Cl)N/N=C/c1cc2c(s1)CCCC2 [Compound 6] | – | – | 46 | – | IC50 (drDXPS [1]; IC50 drDXPS): 101 µM; inhib. (%) growth inhibition of E. coli TolC (E. coli TolC; at 25 μM): n.i.^#
12 | CCN(CC)c1ccc(/C=N/NC(=O)c2cccs2)c(O)c1 [Compound 21] | 6 | – | 11 | 70 (≈ 22.2 µg/mL) | –
13 | O=C(COc1ccc(Cl)cc1Cl)N/N=C/c1c[nH]c2ccccc12 [Compound 9] | 38 | – | – | 19 ± 7 (≈ 6.88 µg/mL) | inhibition at 200 µM (mtDXPS): 15%
14 | O=C(NCCc1ccc(C(F)(F)F)nc1)c1cc2c(s1)CCCC2 [Compound 38] | 25.8 | 19 | – | – | –
15 | FC(F)(F)c1ccc(-c2nnc(-c3cc4c(s3)CCCC4)o2)cn1 [Compound 40] | – | – | – | – | KD drDXPS (drDXPS [2]; SPR, steady-state fit): n.b.; inhib. (%) growth inhibition of E. coli TolC (E. coli TolC; at 50 μM): no inhibition and n.i.
16 | COc1cccc(/C=N/NC(=O)CCCOc2ccc(Cl)cc2Cl)c1O [Compound 25] | 45 | – | – | 60 (≈ 23.8 µg/mL) | inhib. (%) mtDXPS (mtDXPS): n.i.
17 | O=C(CCCOc1ccc(Cl)cc1Cl)N/N=C/c1ccc(O)cc1F [Compound 23] | 40 to 62 | – | – | 45 (≈ 17.3 µg/mL) | inhib. (%) mtDXPS (mtDXPS): n.i.
18 | O=C(CCCOc1ccc(Cl)cc1Cl)N/N=C/c1cccc2[nH]ncc12 [Compound 22] | 47 | – | – | – | inhib. (%) mtDXPS (mtDXPS): n.i.; inhib. (%) growth inhibition of E. coli TolC (E. coli TolC; at 50 μM): n.i.
19 | Oc1ccc(-c2nnc(CCCOc3ccc(Cl)cc3Cl)o2)c(F)c1 [Compound 41, 4-(5-(3-(2,4-dichlorophenoxy)propyl)-1,3,4-oxadiazol-2-yl)-3-fluorophenol] | – | 47 | – | – | inhib. (%) drDXPS (drDXPS [1]; at 60 μM): 48 ± 3%; IC50 (drDXPS [1]; estimated IC50 drDXPS, estimated assuming full inhibition at high concentrations): 99 µM
20 | O=C(N/N=C/c1cc2c(s1)CCCC2)c1cccs1 [Compound 7] | 37 | 57 | 65 | – | inhibition at 200 µM (mtDXPS): 65 ± 4%; anti-TB activity, head-to-head comparative analysis (M. tuberculosis H37Rv): most active; MIC (M. tuberculosis H37Rv): > 64 µM; aggregate formation [3]: did not induce aggregate formation
